Columns and labels:
Tel-FLT3-BaF3 = assay: Proliferation of Tel-FLT3-BaF3 cells, CCK8 cell viability assay; format: cell-based; settings: Mus musculus, 72 hours, stably expressing FLT3 kinase
In short: (§1)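 Murine BaF3 cells made IL-3-independent by retroviral transduction of human kinase domains fused to N-terminal TEL or TPR fragments; parental BaF3 included. Living cells quantified by CCK8 (dehydrogenase activity) read-out, giving GI50 in μM.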

Tel-RET-BaF3 = assay: Proliferation of Tel-RET-BaF3 cells, CCK8 cell viability assay; format: cell-based; settings: Mus musculus, 72 hours, stably expressing RET kinase
Tel-cKit/T670I-BaF3 = assay: Proliferation of Tel-cKit/T670I-BaF3 cells, CCK8 cell viability assay; format: cell-based; settings: Mus musculus, 72 hours, stably expressing cKIT/T670I
In short: as §1

P210-BaF3 = assay: Proliferation of P210-BaF3 cells, CCK8 cell viability assay; format: cell-based; settings: Mus musculus, 72 hours, stably expressing BCR-ABL mutant activated kinase
In short: as §1

FLT3-ITD-BaF3 = assay: Proliferation of FLT3-ITD-BaF3 cells, CCK8 cell viability assay; format: cell-based; settings: Mus musculus, 72 hours, stably expressing FLT3/ITD
In short: as §1

BaF3 = assay: Proliferation of BaF3 cells, CCK8 cell viability assay; format: cell-based; settings: Mus musculus, 72 hours
In short: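 GI50 (μM) from CCK8 read-out, which measures reductive dehydrogenase activity in living cells. Cells: parental mouse BaF3, or BaF3 stably expressing TEL-fused human cKIT, PDGFRα or PDGFRβ kinase domains and grown without IL-3, making them kinase-dependent.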

TEL-VEGFR2-BaF3 = assay: Proliferation of TEL-VEGFR2-BaF3 cells, CCK8 cell viability assay; format: cell-based; settings: Mus musculus, 72 hours, stably expressing VEGFR2 kinase
In short: as §1

Tel-cKit-BaF3 = assay: Proliferation of Tel-cKit-BaF3 cells, CCK8 cell viability assay; format: cell-based, mouse; settings: Mus musculus; 72 hours, CCK8; stably expressing cKIT kinase
In short: as §1

TEL-PDGFRα-BaF3 = assay: Proliferation of TEL-PDGFRα-BaF3 cells, CCK8 cell viability assay; format: cell-based; settings: Mus musculus, 72 hours, stably expressing PDGFRα kinase
In short: as §1

P210/T315I-BaF3 = assay: Proliferation of P210/T315I-BaF3 cells, CCK8 cell viability assay; format: cell-based; settings: Mus musculus, 72 hours, stably expressing BCR-ABL/T315I
In short: as §1

TEL-PDGFRβ-BaF3 = assay: Proliferation of TEL-PDGFRβ-BaF3 cells, CCK8 cell viability assay; format: cell-based; settings: Mus musculus, 72 hours, stably expressing PDGFRβ kinase
In short: as §1

Compound | GI50 (Tel-FLT3-BaF3) | GI50 (Tel-RET-BaF3) | GI50 (Tel-cKit/T670I-BaF3) | GI50 (P210-BaF3) | GI50 (FLT3-ITD-BaF3) | GI50 (BaF3) | GI50 (TEL-VEGFR2-BaF3) | GI50 (Tel-cKit-BaF3) | GI50 (TEL-PDGFRα-BaF3) | GI50 (P210/T315I-BaF3) | GI50 (TEL-PDGFRβ-BaF3)
CC(=O)Nc1cc(Oc2ccc(NC(=O)Cc3cccc(F)c3F)cc2)ncn1 [Example 16, N-[4-(6-acetylamino-pyrimidin-4-yloxy)-phenyl]-2-(2,3-difluoro-phenyl)-acetamide] | 0.818 µM | 0.247 µM | > 10 µM | > 10 µM | 0.247 µM | > 10 µM | 0.853 µM | > 10 µM | 0.012 µM | > 10 µM | 0.109 µM
CC(=O)Nc1cc(Oc2ccc(NC(=O)Cc3cccc(Br)c3)cc2)ncn1 [Example 13, N-[4-(6-acetylamino-pyrimidin-4-yloxy)-phenyl]-2-(3-bromo-phenyl)-acetamide] | 0.616 µM | > 10 µM | > 10 µM | > 10 µM | 0.099 µM | > 10 µM | 0.566 µM | 6.89 µM | 0.004 µM | > 10 µM | 0.033 µM
CCCCC(=O)Nc1cc(Oc2ccc(NC(=O)Cc3ccccc3C(F)(F)F)cc2)ncn1 [Example 55, N-(6-{4-[2-(2-trifluoromethyl-phenyl)-acetylamino]-phenoxy}-pyrimidin-4-yl)-valeramide] | 0.65 µM | 7.9 µM | 6.3 µM | > 10 µM | 0.14 µM | > 10 µM | 3.9 µM | 4.6 µM | 0.038 µM | > 10 µM | 0.061 µM
Cc1ccc(NC(=O)Nc2ccc(Oc3cc(N[C@@H](C)C(=O)O)ncn3)cc2)cc1C(F)(F)F [Example 126, (6-(4-(3-(4-methyl-3-(trifluoromethyl)phenyl)ureido)phenoxy)pyrimidin-4-yl)-L-aminopropionic Acid] | 0.797 µM | 6.38 µM | 4.68 µM | > 10 µM | 0.153 µM | > 10 µM | 0.41 µM | 1.66 µM | 0.14 µM | > 10 µM | 0.49 µM
CC(C)C(=O)Nc1cc(Oc2ccc(NC(=O)Cc3ccccc3C(F)(F)F)cc2)ncn1 [Example 49, N-(6-{4-[2-(2-trifluoromethyl-phenyl)-acetylamino]-phenoxy}-pyrimidin-4-yl)-isobutyramide] | 2.58 µM | > 10 µM | > 10 µM | > 10 µM | 1.97 µM | > 10 µM | 6.11 µM | > 10 µM | 0.059 µM | > 10 µM | 0.145 µM
CC(=O)Nc1cc(Oc2ccc(NC(=O)Cc3ccccc3F)cc2)ncn1 [Example 25, N-[4-(6-acetylamino-pyrimidin-4-yloxy)-phenyl]-2-(2-fluoro-phenyl)-acetamide] | 1.15 µM | > 10 µM | > 10 µM | > 10 µM | 0.263 µM | > 10 µM | 2.11 µM | > 10 µM | 0.033 µM | 1.04 µM | 0.073 µM
Cc1ccc(NC(=O)NC2CCC(Oc3cc(NCCO)ncn3)CC2)cc1C(F)(F)F (stereo not drawn) [Example 40, 1-{4-[6-(2-hydroxy-ethylamino)-pyrimidin-4-yloxy]-cyclohexyl}-3-(4-methyl-3-trifluoromethyl-phenyl)-urea] | 0.58 µM | 4.18 µM | 2.4 µM | 5.36 µM | 0.168 µM | 5.06 µM | 5.09 µM | 5.19 µM | 0.021 µM | 3.93 µM | 0.33 µM

Stronger by GI50 (Tel-FLT3-BaF3), values ahead:

GI50 (Tel-FLT3-BaF3) | GI50 (Tel-RET-BaF3) | GI50 (Tel-cKit/T670I-BaF3) | GI50 (P210-BaF3) | GI50 (FLT3-ITD-BaF3) | GI50 (BaF3) | GI50 (TEL-VEGFR2-BaF3) | GI50 (Tel-cKit-BaF3) | GI50 (TEL-PDGFRα-BaF3) | GI50 (P210/T315I-BaF3) | GI50 (TEL-PDGFRβ-BaF3) | Compound
0.436 µM | > 10 µM | > 10 µM | > 10 µM | 0.077 µM | > 10 µM | 1.24 µM | 8.68 µM | 0.074 µM | > 10 µM | 0.18 µM | CC(=O)Nc1cc(Oc2ccc(NC(=O)Cc3ccccc3Cl)cc2)ncn1 [Example 26, N-[4-(6-acetylamino-pyrimidin-4-yloxy)-phenyl]-2-(2-chloro-phenyl)-acetamide]
0.15 µM | 3.87 µM | 0.641 µM | > 10 µM | 0.087 µM | > 10 µM | 1.19 µM | 8.47 µM | 0.11 µM | 8.73 µM | 0.15 µM | Cc1ccc(NC(=O)NC2CCC(Oc3cc(NCCN)ncn3)CC2)cc1C(F)(F)F (stereo not drawn) [Example 128, 1-{4-[6-(2-amino-ethylamino)-pyrimidin-4-yloxy]-cyclohexyl}-3-(4-methyl-3-trifluoromethyl-phenyl)-urea]
0.305 µM | 3.4 µM | 1.12 µM | 6.96 µM | 0.199 µM | > 10 µM | 2.6 µM | 5.3 µM | 0.023 µM | 5.21 µM | 0.252 µM | COCCNc1cc(O[C@H]2CC[C@H](NC(=O)Nc3ccc(C)c(C(F)(F)F)c3)CC2)ncn1 [Example 43, 1-((1R,4R)-4-((6-((2-methoxyethyl)amino)pyrimidin-4-yl)oxy)cyclohexyl)-3-(4-methyl-3-(trifluoromethyl)phenyl)urea]
0.236 µM | > 10 µM | > 10 µM | > 10 µM | 0.067 µM | > 10 µM | 0.518 µM | 3.21 µM | 0.035 µM | > 10 µM | 0.07 µM | CC(=O)Nc1cc(Oc2ccc(NC(=O)Cc3cc(C)ccc3C)cc2)ncn1 [Example 7, N-[4-(6-acetylamino-pyrimidin-4-yloxy)-phenyl]-2-(2,5-dimethyl-phenyl)-acetamide]
0.263 µM | 3.18 µM | 0.707 µM | 4.43 µM | 0.109 µM | 7.8 µM | 2.9 µM | 5.12 µM | 0.059 µM | 4.69 µM | 0.233 µM | COCCNc1cc(OC2CCC(NC(=O)Nc3ccc(C)c(C(F)(F)F)c3)CC2)ncn1 (stereo not drawn) [Example 41, 1-{4-[6-(2-methoxy-ethylamino)-pyrimidin-4-yloxy]-cyclohexyl}-3-(4-methyl-3-trifluoromethyl-phenyl)-urea]
0.51 µM | > 10 µM | > 10 µM | > 10 µM | 0.092 µM | > 10 µM | 1.4 µM | 3.6 µM | 0.014 µM | > 10 µM | 0.039 µM | CC(=O)Nc1cc(Oc2ccc(NC(=O)Cc3cc(F)cc(F)c3)cc2)ncn1 [Example 173, N-[4-(6-acetylamino-pyrimidin-4-yloxy)-phenyl]-2-(3,5-difluoro-phenyl)-acetamide]
0.017 µM | > 10 µM | > 10 µM | 6.74 µM | 0.004 µM | > 10 µM | 0.139 µM | 0.524 µM | 0.001 µM | > 10 µM | 0.003 µM | CC(=O)Nc1cc(Oc2ccc(NC(=O)Cc3ccc(Cl)cc3Cl)cc2)ncn1 [Example 8, N-[4-(6-acetylamino-pyrimidin-4-yloxy)-phenyl]-2-(2,4-dichloro-phenyl)-acetamide]
0.206 µM | 4.3 µM | 0.394 µM | 3.92 µM | 0.036 µM | 3.37 µM | 0.17 µM | 0.391 µM | 0.008 µM | 3.92 µM | 0.017 µM | Cc1ccc(NC(=O)Nc2ccc(Oc3cc(NCCN4CCCC4)ncn3)cc2)cc1C(F)(F)F [Example 122, 1-(4-methyl-3-trifluoromethyl-phenyl)-3-{4-[6-(2-pyrrolidin-1-yl-ethylamino)-pyrimidin-4-yloxy]-phenyl}-urea]

— patent US11602534B2, “Pyrimidine derivative kinase inhibitors” (HEFEI INSTITUTES OF PHYSICAL SCIENCE, CHINESE ACADEMY OF …, priority 2017, dated 2023)
